pKi: −log10 of the molar value.
Tests used:
Format in all cases: biochemical
Conditions in all cases: in vitro, pH 7.5, room temperature, 15 min preincubation, substrate 1-3 hours
stromelysin = stromelysin (Homo sapiens, UniProt P08254); assay: particle concentration fluorescence assay, inhibition of stromelysin
Procedure: (§1) Inhibitory activity is evaluated in one or more of the MMP enzymes (stromelysin, gelatinase, and collagenase) in vitro using particle concentration fluorescence assay. An inhibitor binds to MMP enzymes which prevents the degradation of a substrate by stromelysin, gelatinase, or collagenase. The substrate has attached to it a fluorescein and a biotin moiety. The intact substrate then binds to an avidin-coated particle via the biotin moiety. Once the particle is washed and dried, a fluorescent signal is generated since the fluorescent group is attached to the particle. Without an inhibitor present, the substrate is degraded by MMP enzymes and the fluorescein group is removed, therefore, no fluorescent signal can be detected. Testing compounds are dissolved in DMSO to the desired concentration, then the solutions are diluted to 1:5 with MMP buffer (50 mM Tris-HCl, pH 7.5; 150 mM NaCl; 0.02% NaN3). Serial two-fold dilutions of each compound are prepared. A concentrated, activated enzyme solution is transferred into each plate of the testing compounds, and the mixture is incubated at room temperature for 15 minutes. Thawed MMP substrate is then added into all plates, and the plates are incubated in the dark for 1-3 hours at room temperature. At this point, the substrate mixture is mixed with 0.1% avidin-coated polystyrene particles. After 15 minutes, the fluorescence values are measured following filtration and washing of the beads. Ki values are then calculated.

gelatinase = assay: particle concentration fluorescence assay, inhibition of gelatinase
Procedure: as §1

collagenase = assay: particle concentration fluorescence assay, inhibition of collagenase
Procedure: as §1

stromelysin, sequence (P08254 100-477): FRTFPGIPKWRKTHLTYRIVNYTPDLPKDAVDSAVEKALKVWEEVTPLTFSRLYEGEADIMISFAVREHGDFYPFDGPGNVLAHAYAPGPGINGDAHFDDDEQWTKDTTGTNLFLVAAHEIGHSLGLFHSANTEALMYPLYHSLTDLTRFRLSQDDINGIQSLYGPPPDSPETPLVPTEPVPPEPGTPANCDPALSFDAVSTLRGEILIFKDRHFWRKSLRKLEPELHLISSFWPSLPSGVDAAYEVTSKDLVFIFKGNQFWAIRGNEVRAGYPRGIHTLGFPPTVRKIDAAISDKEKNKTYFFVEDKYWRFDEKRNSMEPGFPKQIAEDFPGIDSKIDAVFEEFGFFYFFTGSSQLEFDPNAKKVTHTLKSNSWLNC

Structure (SMILES) | pKi (stromelysin) | pKi (gelatinase) | pKi (collagenase)
COc1ccc(S(=O)(=O)NCCC(NS(=O)(=O)c2ccc(OC)cc2)C(=O)NO)cc1 (stereo not drawn) [Example 8, N-Hydroxy-2,4-bis-[[4-methoxyphenylsulfonyl]amino] butanamide] | 8.92 | 9.15 | 7.03
Cc1ccc(S(=O)(=O)NCC(NS(=O)(=O)c2ccc(C)cc2)C(=O)NO)cc1 (stereo not drawn) [Example 4, N-Hydroxy-2,3-bis-[[4-methylphenylsulfonyl]amino] propionamide] | 6.07 | 7.70 | 6.35
O=C(NO)C(CCNS(=O)(=O)c1ccc(F)cc1)NS(=O)(=O)c1ccc(F)cc1 (stereo not drawn) [Example 5, N-Hydroxy-2,4-bis-[[4-fluorophenylsulfonyl]amino] butanamide] | 7.35 | 7.80 | 7.22
Cc1ccc(S(=O)(=O)NCC[C@@H](NS(=O)(=O)c2ccc(C)cc2)C(=O)NO)cc1 [Example 2, (R)-N-Hydroxy-2,4-bis-[[4-methylphenylsulfonyl]amino] butanamide] | 8.49 | 8.89 | 7.37
Cc1ccc(S(=O)(=O)NCCC(NS(=O)(=O)c2ccc(C)cc2)C(=O)NO)cc1 (stereo not drawn) [Example 1, N-Hydroxy-2,4-bis-[[4-methylphenylsulfonyl]amino] butanamide] | 8.62 | 9.03 | 7.32
Cc1ccc(S(=O)(=O)NCC[C@H](NS(=O)(=O)c2ccc(C)cc2)C(=O)NO)cc1 [Example 3, (S)-N-Hydroxy-2,4-bis-[[4-methylphenylsulfonyl]amino] butanamide] | 7.32 | 7.46 | 6.08
O=C(NO)[C@H](CCNS(=O)(=O)c1ccccc1)NS(=O)(=O)c1ccccc1 [Example 6, (S)-N-Hydroxy-2,4-bis-[[phenylsulfonyl]amino] butanamide] | 5.70 | 6.55 | 5.52
Cc1ccc(S(=O)(=O)NCCCC(NS(=O)(=O)c2ccc(C)cc2)C(=O)NO)cc1 (stereo not drawn) [Example 7, N-Hydroxy-2,5-bis-[[4-methylphenylsulfonyl]amino] valeramide] | 6.97 | 8.29 | 6.24

Source: US5859061A, “Bis-sulfonamides hydroxamic acids as MMP inhibitors” (Pharmacia & Upjohn Company, priority 1998, dated 1999)
